Test results as given in US9790178B2, “Pyrrolidinyl urea, thiourea, guanidine and cyanoguanidine compounds as TrkA kinase inhibitors” (Array BioPharma Inc., priority 2012, dated 2017).

Legend:
Assay in all cases: KinaseProfiler off-target kinase profiling
Format in all cases: biochemical
Settings in all cases: 10 μM, ATP near Km
Pim-2 = molecular target: T1, Pim-2 (Homo sapiens, UniProt Q9P1W9)
T1 construct: purchased Millipore, Inc. (KinaseProfiler service)
Outline: (§1)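 Off-target profiling uses one compound concentration (10 μM) and an ATP level near the kinase-specific Km; duplicates are averaged and given as POC.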

PKCbetaII = molecular target: T2, PKCbetaII (Homo sapiens, UniProt P05771)
T2 construct: purchased Millipore, Inc. (KinaseProfiler service)
Outline: as §1

DYRK2 = molecular target: T3, DYRK2 (Homo sapiens, UniProt Q92630)
T3 construct: purchased Millipore, Inc. (KinaseProfiler service)
Outline: as §1

PKCeta = molecular target: T4, PKCeta (Homo sapiens, UniProt P24723)
T4 construct: purchased Millipore, Inc. (KinaseProfiler service)
Outline: as §1

HIPK2 = molecular target: T5, HIPK2 (Homo sapiens, UniProt Q9H2X6)
T5 construct: purchased Millipore, Inc. (KinaseProfiler service)
Outline: as §1

CHK2 = molecular target: T6, CHK2 (Homo sapiens, UniProt O96017)
T6 construct: purchased Millipore, Inc. (KinaseProfiler service)
T6 sequence (O96017 whole entry): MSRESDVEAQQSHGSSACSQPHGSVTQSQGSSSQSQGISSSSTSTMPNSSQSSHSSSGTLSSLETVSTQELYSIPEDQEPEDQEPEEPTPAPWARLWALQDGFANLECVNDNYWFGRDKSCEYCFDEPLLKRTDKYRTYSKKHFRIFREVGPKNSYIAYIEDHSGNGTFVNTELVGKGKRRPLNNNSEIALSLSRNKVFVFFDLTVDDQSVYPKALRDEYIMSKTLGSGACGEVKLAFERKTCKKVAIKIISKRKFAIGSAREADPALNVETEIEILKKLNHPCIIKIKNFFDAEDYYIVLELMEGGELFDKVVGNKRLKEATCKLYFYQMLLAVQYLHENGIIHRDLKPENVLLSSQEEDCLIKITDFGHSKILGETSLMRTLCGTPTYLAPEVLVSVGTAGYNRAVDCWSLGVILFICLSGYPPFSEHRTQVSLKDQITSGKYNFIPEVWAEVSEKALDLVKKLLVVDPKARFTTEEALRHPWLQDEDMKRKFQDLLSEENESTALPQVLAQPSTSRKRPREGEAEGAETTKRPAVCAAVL
Outline: as §1

ErbB4 = molecular target: T7, ErbB4 (Homo sapiens, UniProt Q15303)
T7 construct: purchased Millipore, Inc. (KinaseProfiler service)
Outline: as §1

Flt1 = molecular target: T8, Flt1 (Homo sapiens, UniProt P17948)
T8 construct: purchased Millipore, Inc. (KinaseProfiler service)
Outline: as §1

AKT3 = molecular target: T9, AKT3 (Homo sapiens, UniProt Q9Y243)
T9 construct: purchased Millipore, Inc. (KinaseProfiler service)
T9 sequence (Q9Y243 whole entry): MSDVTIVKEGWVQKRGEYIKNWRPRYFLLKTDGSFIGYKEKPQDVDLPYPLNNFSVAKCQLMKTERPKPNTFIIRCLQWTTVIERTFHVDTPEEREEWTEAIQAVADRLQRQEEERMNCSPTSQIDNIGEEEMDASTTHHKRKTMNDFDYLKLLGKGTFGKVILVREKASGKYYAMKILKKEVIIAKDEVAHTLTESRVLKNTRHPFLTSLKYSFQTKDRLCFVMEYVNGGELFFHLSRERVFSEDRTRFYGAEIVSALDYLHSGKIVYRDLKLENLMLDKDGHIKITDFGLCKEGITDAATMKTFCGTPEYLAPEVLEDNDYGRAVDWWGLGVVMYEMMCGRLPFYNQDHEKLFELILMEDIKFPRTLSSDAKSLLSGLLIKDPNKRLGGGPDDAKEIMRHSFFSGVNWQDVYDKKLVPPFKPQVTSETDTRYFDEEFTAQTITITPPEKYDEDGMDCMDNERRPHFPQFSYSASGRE
Outline: as §1

JNK3 = molecular target: T10, JNK3 (Homo sapiens, UniProt P53779)
T10 construct: purchased Millipore, Inc. (KinaseProfiler service)
Outline: as §1

MRCKalpha = molecular target: T11, MRCKalpha (Homo sapiens, UniProt Q5VT25)
T11 construct: purchased Millipore, Inc. (KinaseProfiler service)
Outline: as §1

ROCK-II = molecular target: T12, ROCK-II (Homo sapiens, UniProt O75116)
T12 construct: purchased Millipore (KinaseProfiler service)
Outline: as §1

DCAMKL2 = molecular target: T13, DCAMKL2 (Homo sapiens, UniProt Q8N568)
T13 construct: purchased Millipore, Inc. (KinaseProfiler service)
T13 sequence (Q8N568 whole entry): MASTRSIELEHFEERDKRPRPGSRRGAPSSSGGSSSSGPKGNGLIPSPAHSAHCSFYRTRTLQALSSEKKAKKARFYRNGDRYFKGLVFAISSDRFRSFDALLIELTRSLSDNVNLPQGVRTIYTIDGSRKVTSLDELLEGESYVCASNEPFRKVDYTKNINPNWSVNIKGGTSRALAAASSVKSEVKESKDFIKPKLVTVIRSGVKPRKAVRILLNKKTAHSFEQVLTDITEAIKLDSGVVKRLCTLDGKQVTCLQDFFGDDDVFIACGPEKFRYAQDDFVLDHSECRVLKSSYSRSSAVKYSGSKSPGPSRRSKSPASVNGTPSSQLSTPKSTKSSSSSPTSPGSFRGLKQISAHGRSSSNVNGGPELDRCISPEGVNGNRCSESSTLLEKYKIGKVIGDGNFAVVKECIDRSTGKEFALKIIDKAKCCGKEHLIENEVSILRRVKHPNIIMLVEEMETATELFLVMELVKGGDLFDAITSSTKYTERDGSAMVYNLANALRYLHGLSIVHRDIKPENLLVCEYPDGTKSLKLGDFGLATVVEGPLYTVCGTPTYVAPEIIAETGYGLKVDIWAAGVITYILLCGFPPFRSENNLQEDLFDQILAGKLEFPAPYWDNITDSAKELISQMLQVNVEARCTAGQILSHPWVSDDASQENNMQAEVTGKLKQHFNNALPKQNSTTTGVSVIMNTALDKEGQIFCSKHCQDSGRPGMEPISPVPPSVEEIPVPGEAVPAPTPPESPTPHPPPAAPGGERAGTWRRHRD
Outline: as §1

LOK = molecular target: T14, LOK (Homo sapiens, UniProt O94804)
T14 construct: purchased Millipore, Inc. (KinaseProfiler service)
Outline: as §1

Abl = molecular target: T15, Abl (Homo sapiens, UniProt P00519)
T15 construct: purchased Millipore, Inc. (KinaseProfiler service)
Outline: as §1

STK33 = molecular target: T16, STK33 (Homo sapiens, UniProt Q9BYT3)
T16 construct: purchased Millipore, Inc. (KinaseProfiler service)
T16 sequence (Q9BYT3 whole entry): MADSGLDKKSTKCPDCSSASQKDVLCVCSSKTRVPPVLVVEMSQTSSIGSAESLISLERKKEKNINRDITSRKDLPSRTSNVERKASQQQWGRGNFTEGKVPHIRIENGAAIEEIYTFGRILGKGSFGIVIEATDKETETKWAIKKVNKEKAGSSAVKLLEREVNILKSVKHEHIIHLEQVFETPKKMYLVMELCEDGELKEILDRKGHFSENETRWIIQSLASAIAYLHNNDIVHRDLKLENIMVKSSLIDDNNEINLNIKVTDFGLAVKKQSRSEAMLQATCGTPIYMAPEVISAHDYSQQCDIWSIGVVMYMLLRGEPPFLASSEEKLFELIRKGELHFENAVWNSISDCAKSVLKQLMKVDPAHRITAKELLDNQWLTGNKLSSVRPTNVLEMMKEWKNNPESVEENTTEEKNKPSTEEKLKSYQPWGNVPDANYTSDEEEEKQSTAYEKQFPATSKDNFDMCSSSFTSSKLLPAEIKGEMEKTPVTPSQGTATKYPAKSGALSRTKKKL
Outline: as §1

MKNK2 = molecular target: T17, MKNK2 (Homo sapiens, UniProt Q9HBH9)
T17 construct: purchased Millipore, Inc. (KinaseProfiler service)
Outline: as §1

TNK2 = molecular target: T18, TNK2 (Homo sapiens, UniProt Q07912)
T18 construct: purchased Millipore, Inc. (KinaseProfiler service)
Outline: as §1

TSSK2 = molecular target: T19, TSSK2 (Homo sapiens, UniProt Q96PF2)
T19 construct: purchased Millipore, Inc. (KinaseProfiler service)
T19 sequence (Q96PF2 whole entry): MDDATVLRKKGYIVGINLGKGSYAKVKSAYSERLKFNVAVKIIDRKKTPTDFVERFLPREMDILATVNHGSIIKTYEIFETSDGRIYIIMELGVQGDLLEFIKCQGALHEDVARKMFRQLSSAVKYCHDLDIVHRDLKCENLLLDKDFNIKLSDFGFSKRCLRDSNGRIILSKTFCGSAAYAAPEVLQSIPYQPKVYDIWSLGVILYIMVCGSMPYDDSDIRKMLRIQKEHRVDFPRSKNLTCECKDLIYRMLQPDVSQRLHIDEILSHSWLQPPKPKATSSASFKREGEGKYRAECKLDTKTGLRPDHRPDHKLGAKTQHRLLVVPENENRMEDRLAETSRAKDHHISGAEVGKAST
Outline: as §1

mTOR = molecular target: T20, mTOR (Homo sapiens, UniProt P42345)
T20 construct: purchased Millipore, Inc. (KinaseProfiler service)
Outline: as §1

Haspin = molecular target: T21, Haspin (Homo sapiens, UniProt Q8TF76)
T21 construct: purchased Millipore, Inc. (KinaseProfiler service)
Outline: as §1

PKCtheta = molecular target: T22, PKCtheta (Homo sapiens, UniProt Q04759)
T22 construct: purchased Millipore (KinaseProfiler service)
Outline: as §1

GSK3alpha = molecular target: T23, GSK3alpha (Homo sapiens, UniProt P49840)
T23 construct: purchased Millipore, Inc. (KinaseProfiler service)
Outline: as §1

Fgr = molecular target: T24, Fgr (Homo sapiens, UniProt P09769)
T24 construct: purchased Millipore, Inc. (KinaseProfiler service)
T24 sequence (P09769 whole entry): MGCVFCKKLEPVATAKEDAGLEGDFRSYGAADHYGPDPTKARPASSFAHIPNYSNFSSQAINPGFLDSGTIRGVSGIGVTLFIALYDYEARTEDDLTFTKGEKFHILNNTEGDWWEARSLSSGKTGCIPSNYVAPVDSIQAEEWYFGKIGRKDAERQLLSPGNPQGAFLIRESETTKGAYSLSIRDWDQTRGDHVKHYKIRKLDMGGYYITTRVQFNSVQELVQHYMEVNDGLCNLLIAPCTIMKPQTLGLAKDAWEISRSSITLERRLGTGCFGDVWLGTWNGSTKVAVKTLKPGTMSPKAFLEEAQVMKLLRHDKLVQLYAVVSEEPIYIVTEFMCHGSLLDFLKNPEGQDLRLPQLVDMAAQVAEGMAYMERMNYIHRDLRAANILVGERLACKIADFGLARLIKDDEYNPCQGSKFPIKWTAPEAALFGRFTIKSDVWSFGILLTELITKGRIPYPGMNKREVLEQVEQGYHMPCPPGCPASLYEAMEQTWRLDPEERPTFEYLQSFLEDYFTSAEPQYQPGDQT
Outline: as §1

MAPKAP-K2 = molecular target: T25, MAPKAP-K2 (Homo sapiens, UniProt P49137)
T25 construct: purchased Millipore, Inc. (KinaseProfiler service)
T25 sequence (P49137 whole entry): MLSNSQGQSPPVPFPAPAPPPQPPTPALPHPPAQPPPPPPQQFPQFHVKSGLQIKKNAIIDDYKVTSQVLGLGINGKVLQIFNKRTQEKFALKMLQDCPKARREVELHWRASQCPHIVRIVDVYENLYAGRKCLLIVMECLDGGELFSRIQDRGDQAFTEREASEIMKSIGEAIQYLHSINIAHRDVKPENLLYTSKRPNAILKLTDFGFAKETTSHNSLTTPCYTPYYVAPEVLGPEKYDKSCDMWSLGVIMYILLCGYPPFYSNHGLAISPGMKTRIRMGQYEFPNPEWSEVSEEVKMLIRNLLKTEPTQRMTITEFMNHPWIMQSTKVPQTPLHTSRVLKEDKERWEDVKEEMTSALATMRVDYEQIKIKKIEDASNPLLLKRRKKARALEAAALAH
Outline: as §1

BLK_m = molecular target: T26, BLK_m (Mus musculus, UniProt P16277)
T26 construct: purchased Millipore, Inc. (KinaseProfiler service)
Outline: as §1

JNK2alpha2 = molecular target: T27, JNK2alpha2 (Homo sapiens, UniProt P45984)
T27 construct: purchased Millipore, Inc. (KinaseProfiler service)
Outline: as §1

PTK5 = molecular target: T28, PTK5 (Homo sapiens, UniProt P42685)
T28 construct: purchased Millipore (KinaseProfiler service)
Outline: as §1

PAK6 = molecular target: T29, PAK6 (Homo sapiens, UniProt Q9NQU5)
T29 construct: purchased Millipore, Inc. (KinaseProfiler service)
Outline: as §1

EphA4 = molecular target: T30, EphA4 (Homo sapiens, UniProt P54764)
T30 construct: purchased Millipore, Inc. (KinaseProfiler service)
T30 sequence (P54764 20-986): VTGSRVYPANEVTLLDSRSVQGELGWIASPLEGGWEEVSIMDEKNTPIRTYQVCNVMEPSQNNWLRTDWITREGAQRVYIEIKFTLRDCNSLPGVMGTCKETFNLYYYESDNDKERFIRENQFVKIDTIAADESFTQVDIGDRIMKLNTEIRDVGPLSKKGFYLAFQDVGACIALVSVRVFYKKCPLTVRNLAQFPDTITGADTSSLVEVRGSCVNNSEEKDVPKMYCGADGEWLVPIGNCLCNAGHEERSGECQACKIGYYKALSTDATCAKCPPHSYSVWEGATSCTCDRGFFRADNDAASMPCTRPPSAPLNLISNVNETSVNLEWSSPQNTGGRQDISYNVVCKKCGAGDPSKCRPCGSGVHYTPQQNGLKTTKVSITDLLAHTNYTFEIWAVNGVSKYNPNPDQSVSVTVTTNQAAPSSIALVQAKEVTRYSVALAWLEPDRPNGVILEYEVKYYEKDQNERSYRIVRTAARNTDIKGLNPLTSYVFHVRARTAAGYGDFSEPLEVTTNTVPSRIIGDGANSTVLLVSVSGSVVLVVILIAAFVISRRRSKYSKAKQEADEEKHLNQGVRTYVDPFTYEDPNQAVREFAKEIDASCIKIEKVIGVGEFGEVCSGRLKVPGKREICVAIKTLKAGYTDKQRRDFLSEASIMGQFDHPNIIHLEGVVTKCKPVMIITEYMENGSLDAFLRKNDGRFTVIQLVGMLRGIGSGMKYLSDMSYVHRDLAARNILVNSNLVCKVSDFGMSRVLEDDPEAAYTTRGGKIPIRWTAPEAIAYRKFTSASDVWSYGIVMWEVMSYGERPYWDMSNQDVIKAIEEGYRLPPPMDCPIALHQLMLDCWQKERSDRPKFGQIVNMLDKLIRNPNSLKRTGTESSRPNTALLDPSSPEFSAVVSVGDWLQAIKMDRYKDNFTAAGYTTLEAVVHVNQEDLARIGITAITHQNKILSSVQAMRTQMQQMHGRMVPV
Outline: as §1

BrSK2 = molecular target: T31, BrSK2 (Homo sapiens, UniProt Q8IWQ3)
T31 construct: purchased Millipore, Inc. (KinaseProfiler service)
Outline: as §1

MuSK = molecular target: T32, MuSK (Homo sapiens, UniProt O15146)
T32 construct: purchased Millipore, Inc. (KinaseProfiler service)
Outline: as §1

NEK2 = molecular target: T33, NEK2 (Homo sapiens, UniProt P51955)
T33 construct: purchased Millipore, Inc. (KinaseProfiler service)
T33 sequence (P51955 whole entry): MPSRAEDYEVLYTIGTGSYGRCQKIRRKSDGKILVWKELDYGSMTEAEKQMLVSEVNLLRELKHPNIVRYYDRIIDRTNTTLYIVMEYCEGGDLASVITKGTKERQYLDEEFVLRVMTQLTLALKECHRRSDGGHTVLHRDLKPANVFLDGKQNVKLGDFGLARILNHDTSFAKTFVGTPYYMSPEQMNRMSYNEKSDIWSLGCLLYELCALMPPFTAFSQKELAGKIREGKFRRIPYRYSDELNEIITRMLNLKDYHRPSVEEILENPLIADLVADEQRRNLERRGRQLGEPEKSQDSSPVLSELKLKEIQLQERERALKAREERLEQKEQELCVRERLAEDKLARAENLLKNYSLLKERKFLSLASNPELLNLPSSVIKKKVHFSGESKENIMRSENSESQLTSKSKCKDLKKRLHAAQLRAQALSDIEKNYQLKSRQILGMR
Outline: as §1

NEK6 = molecular target: T34, NEK6 (Homo sapiens, UniProt Q9HC98)
T34 construct: purchased Millipore, Inc. (KinaseProfiler service)
Outline: as §1

PKCepsilon = molecular target: T35, PKCepsilon (Homo sapiens, UniProt Q02156)
T35 construct: purchased Millipore, Inc. (KinaseProfiler service)
Outline: as §1

EphB2 = molecular target: T36, EphB2 (Homo sapiens, UniProt P29323)
T36 construct: purchased Millipore, Inc. (KinaseProfiler service)
Outline: as §1

FGFR2 = molecular target: T37, FGFR2 (Homo sapiens, UniProt P21802)
T37 construct: purchased Millipore, Inc. (KinaseProfiler service)
Outline: as §1

TrkA = molecular target: T38, TrkA (Homo sapiens, UniProt P04629)
T38 construct: purchased Millipore, Inc. (KinaseProfiler service)
Outline: as §1

MKK6 = molecular target: T39, MKK6 (Homo sapiens, UniProt P52564)
T39 construct: purchased Millipore, Inc. (KinaseProfiler service)
Outline: as §1

TBK1 = molecular target: T40, TBK1 (Homo sapiens, UniProt Q9UHD2)
T40 construct: purchased Millipore, Inc. (KinaseProfiler service)
Outline: as §1

IRAK1 = molecular target: T41, IRAK1 (Homo sapiens, UniProt P51617)
T41 construct: purchased Millipore, Inc. (KinaseProfiler service)
Outline: as §1

Structure (SMILES): COCCN1C[C@@H](NC(=O)Nc2c(-c3ccccc3)nc3c(C)nccn23)[C@H](c2ccc(F)c(F)c2)C1 [Example 20, 1-((3S,4R)-4-(3,4-difluorophenyl)-1-(2-methoxyethyl)pyrrolidin-3-yl)-3-(8-methyl-2-phenylimidazo[1,2-a]pyrazin-3-yl)urea]
- Avg. POC (Pim-2): 122.5 POC
- Avg. POC (PKCbetaII): 106 POC
- Avg. POC (DYRK2): 85.5 POC
- Avg. POC (PKCeta): 105.5 POC
- Avg. POC (HIPK2): 102 POC
- Avg. POC (CHK2): 138 POC
- Avg. POC (ErbB4): 97.5 POC
- Avg. POC (Flt1): 100 POC
- Avg. POC (AKT3): 104 POC
- Avg. POC (JNK3): 124.5 POC
- Avg. POC (MRCKalpha): 101.5 POC
- Avg. POC (ROCK-II): 122 POC
- Avg. POC (DCAMKL2): 126.5 POC
- Avg. POC (LOK): 108.5 POC
- Avg. POC (Abl): 114 POC
- Avg. POC (STK33): 109.5 POC
- Avg. POC (MKNK2): 103 POC
- Avg. POC (TNK2): 94.5 POC
- Avg. POC (TSSK2): 106 POC
- Avg. POC (mTOR): 108 POC
- Avg. POC (Haspin): 93.5 POC
- Avg. POC (PKCtheta): 111.5 POC
- Avg. POC (GSK3alpha): 109.5 POC
- Avg. POC (Fgr): 121 POC
- Avg. POC (MAPKAP-K2): 106.5 POC
- Avg. POC (BLK_m): 113 POC
- Avg. POC (JNK2alpha2): 107.5 POC
- Avg. POC (PTK5): 111 POC
- Avg. POC (PAK6): 102 POC
- Avg. POC (EphA4): 106 POC
- Avg. POC (BrSK2): 116 POC
- Avg. POC (MuSK): 108.5 POC
- Avg. POC (NEK2): 91 POC
- Avg. POC (NEK6): 92.5 POC
- Avg. POC (PKCepsilon): 107.5 POC
- Avg. POC (EphB2): 104 POC
- Avg. POC (FGFR2): 106 POC
- Avg. POC (TrkA): 0 POC
- Avg. POC (MKK6): 83 POC
- Avg. POC (TBK1): 114 POC
- Avg. POC (IRAK1): 109.5 POC
